Several values for one entry are separate records, joined by “and”; a condition that tells them apart may be missing. Equal entries are not always repeated. Toxic doses and inconclusive results are not listed. No stated cut-off is given here; in the data, active means T/C of 150% or more; inactive means T/C below 125%.
Test system: L1210 leukemia ip in BDF1 mice, survival T/C
Experiment: NCI In Vivo Anticancer Drug Screen. Data for tumor model L1210 Leukemia (intraperitoneal) in B6D2F1 (BDF1) mice
Conditions: endpoint: mean survival time, higher = longer survival
Summary of the method: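 Ratio derived from survival: compound-dosed mice over vehicle-dosed mice, all bearing a transplantable tumor.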

[1] = dose: 100.0 mg/kg/injection, schedule: Q01DX009 (ip), vehicle: Klucel (hydroxypropylcellulose) (HPC)
[2] = dose: 100.0 mg/kg/injection, schedule: Q04DX003 (ip), vehicle: Klucel (hydroxypropylcellulose) (HPC)
[3] = dose: 200.0 mg/kg/injection, schedule: Q01DX009 (ip), vehicle: Klucel (hydroxypropylcellulose) (HPC)
[4] = dose: 200.0 mg/kg/injection, schedule: Q04DX003 (ip), vehicle: Klucel (hydroxypropylcellulose) (HPC)
[5] = dose: 400.0 mg/kg/injection, schedule: Q01DX009 (ip), vehicle: Klucel (hydroxypropylcellulose) (HPC)
[6] = dose: 400.0 mg/kg/injection, schedule: Q04DX003 (ip), vehicle: Klucel (hydroxypropylcellulose) (HPC)
[7] = dose: 50.0 mg/kg/injection, schedule: Q01DX009 (ip), vehicle: saline
[8] = dose: 100.0 mg/kg/injection, schedule: Q01DX009 (ip), vehicle: saline
[9] = dose: 12.5 mg/kg/injection, schedule: Q04DX003 (ip), vehicle: saline
[10] = dose: 25.0 mg/kg/injection, schedule: Q04DX003 (ip), vehicle: saline
[11] = dose: 50.0 mg/kg/injection, schedule: Q04DX003 (ip), vehicle: saline
[12] = dose: 100.0 mg/kg/injection, schedule: Q04DX003 (ip), vehicle: saline with Tween-80
[13] = dose: 200.0 mg/kg/injection, schedule: Q04DX003 (ip), vehicle: saline with Tween-80
[14] = dose: 400.0 mg/kg/injection, schedule: Q04DX003 (ip), vehicle: saline with Tween-80
[15] = dose: 100.0 mg/kg/injection, schedule: Q04DX002 (ip), vehicle: saline with Tween-80
[16] = dose: 200.0 mg/kg/injection, schedule: Q04DX002 (ip), vehicle: saline with Tween-80
[17] = dose: 400.0 mg/kg/injection, schedule: Q04DX002 (ip), vehicle: saline with Tween-80

Measured: T/C

COC(=O)C1(C)CCCC2(C)c3cc(OC)c4c(c3CCC12)C(=O)CCC4 (stereo unspecified)
inactive: dose: 100.0 mg/kg/injection, schedule: Q01DX001 (sc), vehicle: steriod suspending solution 93 % of control | dose: 200.0 mg/kg/injection, schedule: Q01DX001 (sc), vehicle: steriod suspending solution 90 % of control | dose: 400.0 mg/kg/injection, schedule: Q01DX001 (sc), vehicle: steriod suspending solution 98 % of control

CCOC(=O)c1scnc1C
inactive: [1] 89 % of control | [2] 95 % of control | [3] 95 % of control | [4] 95 % of control | [5] 92 % of control | [6] 95 % of control

CCCCC(=O)OC1CC(C)CCC1C(C)C (stereo unspecified)
inactive: [1] 98 % of control | [2] 93 % of control | [3] 106 % of control | [4] 96 % of control | [5] 98 % of control | [6] 93 % of control

O=S(=O)(/C=C\c1ccccc1)c1ccccc1
inactive: [7] 102 % of control | dose: 100.0 mg/kg/injection, schedule: Q01DX001 (ip), vehicle: acetone 97 % of control | [8] 97 % of control | dose: 100.0 mg/kg/injection, schedule: Q04DX003 (ip), vehicle: acetone 105 % of control | dose: 200.0 mg/kg/injection, schedule: Q01DX001 (ip), vehicle: acetone 106 % of control | dose: 200.0 mg/kg/injection, schedule: Q01DX009 (ip), vehicle: saline 91 % of control | dose: 200.0 mg/kg/injection, schedule: Q04DX003 (ip), vehicle: acetone 94 % of control | dose: 400.0 mg/kg/injection, schedule: Q01DX001 (ip), vehicle: acetone 97 % of control

CCC(NCC(C)C)NCC(C)C
inactive: [9] 91 % of control | [10] 105 % of control | [11] 86 % of control

COc1ccc(C(=O)CBr)c(OC)c1
inactive: [9] 104 % of control | dose: 25.0 mg/kg/injection, schedule: Q01DX009 (ip), vehicle: saline with Tween-80 96 % of control | [10] 97 % of control | [11] 93 % of control | [12] 97 % of control

CN=C(NCCCOC)c1ccc(NC(=O)c2ccc(C(=O)Nc3ccc(C(=NC)NCCCOC)cc3)c([N+](=O)[O-])c2)cc1
inactive: dose: 1.0 mg/kg/injection, schedule: Q01DX Z (ip), vehicle: carboxymethylcellulose (CMC) 91 % of control | dose: 1.88 mg/kg/injection, schedule: Q01DX Z (ip), vehicle: saline 92 % of control | dose: 2.0 mg/kg/injection, schedule: Q01DX Z (ip), vehicle: carboxymethylcellulose (CMC) 91 % of control | dose: 3.75 mg/kg/injection, schedule: Q01DX Z (ip), vehicle: saline 98 % of control | dose: 4.0 mg/kg/injection, schedule: Q01DX Z (ip), vehicle: carboxymethylcellulose (CMC) 92 % of control | dose: 7.5 mg/kg/injection, schedule: Q01DX Z (ip), vehicle: saline 104 % of control | dose: 8.0 mg/kg/injection, schedule: Q01DX Z (ip), vehicle: carboxymethylcellulose (CMC) 95 % of control | dose: 15.0 mg/kg/injection, schedule: Q01DX Z (ip), vehicle: carboxymethylcellulose (CMC) 101 % of control | dose: 15.0 mg/kg/injection, schedule: Q01DX Z (ip), vehicle: saline 92 % of control

NC(=O)N1CC(c2ccccc2)CCc2ccccc21 (stereo unspecified)
inactive: dose: 100.0 mg/kg/injection, schedule: Q01DX001 (ip), vehicle: saline 98 % of control | dose: 200.0 mg/kg/injection, schedule: Q01DX001 (ip), vehicle: saline 108 % of control | dose: 400.0 mg/kg/injection, schedule: Q01DX001 (ip), vehicle: saline 102 % of control

CCOC(=O)c1cccc(N(CCOS(C)(=O)=O)CCOS(C)(=O)=O)c1
inactive: dose: 16.0 mg/kg/injection, schedule: Q01DX015 (ip), vehicle: saline 110 % of control | dose: 32.0 mg/kg/injection, schedule: Q01DX015 (ip), vehicle: saline 118 % of control | dose: 64.0 mg/kg/injection, schedule: Q01DX015 (ip), vehicle: saline 111 % of control

O=C(Nc1ccc(C2=NCCN2)cc1)N1CCN(C(=O)Nc2ccc(C3=NCCN3)cc2)CC1
inactive: dose: 250.0 mg/kg/injection, schedule: Q01DX Z (ip), vehicle: water 87 % of control

COc1ccc(C(CCl)(CCl)c2ccc(OC)c(C)c2)cc1C
inactive: dose: 100.0 mg/kg/injection, schedule: Q01DX009 (ip), vehicle: saline with Tween-80 90 % of control | [12] 100 % of control | dose: 200.0 mg/kg/injection, schedule: Q01DX009 (ip), vehicle: saline with Tween-80 96 % of control | [13] 94 % of control | dose: 400.0 mg/kg/injection, schedule: Q01DX009 (ip), vehicle: saline with Tween-80 86 % of control | [14] 92 % of control

Cc1ccc(N=C(N)N=C(N)N)cc1C
inactive: dose: 75.0 mg/kg/injection, schedule: Q01DX001 (ip), vehicle: carboxymethylcellulose (CMC) 97 % of control | dose: 150.0 mg/kg/injection, schedule: Q01DX001 (ip), vehicle: carboxymethylcellulose (CMC) 97 % of control | dose: 300.0 mg/kg/injection, schedule: Q01DX001 (ip), vehicle: carboxymethylcellulose (CMC) 91 % of control

CC(C)(C)N(O)C(=O)NCCCl
inactive: dose: 100.0 mg/kg/injection, schedule: Q01DX001 (ip), vehicle: Klucel (hydroxypropylcellulose) (HPC) 97 % of control | dose: 200.0 mg/kg/injection, schedule: Q01DX001 (ip), vehicle: Klucel (hydroxypropylcellulose) (HPC) 92 % of control | dose: 400.0 mg/kg/injection, schedule: Q01DX001 (ip), vehicle: Klucel (hydroxypropylcellulose) (HPC) 97 % of control

Cc1ccc(NCC2(/N=C/c3ccccc3)OC(CO)C(O)C2O)cc1 (stereo unspecified)
inactive: dose: 100.0 mg/kg/injection, schedule: Q04DX002 (ip), vehicle: Klucel (hydroxypropylcellulose) (HPC) 97 % of control | dose: 200.0 mg/kg/injection, schedule: Q04DX002 (ip), vehicle: Klucel (hydroxypropylcellulose) (HPC) 102 % of control | dose: 400.0 mg/kg/injection, schedule: Q04DX002 (ip), vehicle: Klucel (hydroxypropylcellulose) (HPC) 102 % of control

CCCCOC(=O)OCNC(=O)Oc1ccc(Br)cc1Br
inactive: [1] 92 % of control | [3] 94 % of control | [5] 101 % of control

O=C1C=CC(=O)C2=C1C1c3ccccc3C2c2ccccc21
inactive: dose: 50.0 mg/kg/injection, schedule: Q04DX002 (ip), vehicle: saline with Tween-80 95 % of control | [15] 95 % of control and 98 % of control | [16] 92 % of control | [17] 114 % of control

CCCCSP(Cc1ccccc1)SCCCC
inactive: [2] 96 % of control | [4] 94 % of control

O=C(O)c1ccc2c(c1)C(=O)N(c1ccccc1)C2=O
inactive: [15] 93 % of control | [16] 93 % of control | [17] 97 % of control

C[n+]1ccn(CC(=O)c2ccccc2)c1
inactive: dose: 25.0 mg/kg/injection, schedule: Q01DX009 (ip), vehicle: saline 98 % of control | [7] 112 % of control | [8] 93 % of control

O=C(O)C1CC2C3(Cl)C(Cl)=C(Cl)C(Cl)C2(CC1c1c2ccc(=O)c(O)c-2oc2c(O)c(O)ccc12)C3(Cl)Cl (stereo unspecified)
inactive: [2] 96 % of control | [4] 94 % of control | [6] 96 % of control

O=[N+]([O-])c1cc(C(F)(F)F)ccc1Oc1ccccc1
inactive: [12] 95 % of control | [13] 110 % of control | [14] 101 % of control

CN(C)CCN(C)C(=O)C1C(c2ccccc2)C1c1ccccc1 (stereo unspecified)
inactive: dose: 12.5 mg/kg/injection, schedule: Q04DX002 (ip), vehicle: Klucel (hydroxypropylcellulose) (HPC) 100 % of control | dose: 25.0 mg/kg/injection, schedule: Q04DX002 (ip), vehicle: Klucel (hydroxypropylcellulose) (HPC) 100 % of control | dose: 50.0 mg/kg/injection, schedule: Q04DX002 (ip), vehicle: Klucel (hydroxypropylcellulose) (HPC) 87 % of control

O=C(CCn1cccc1)c1csc2ccccc12
inactive: dose: 10.0 mg/kg/injection, schedule: Q01DX001 (ip), vehicle: carboxymethylcellulose (CMC) 97 % of control | dose: 20.0 mg/kg/injection, schedule: Q01DX001 (ip), vehicle: carboxymethylcellulose (CMC) 98 % of control | dose: 40.0 mg/kg/injection, schedule: Q01DX001 (ip), vehicle: carboxymethylcellulose (CMC) 100 % of control | dose: 80.0 mg/kg/injection, schedule: Q01DX001 (ip), vehicle: carboxymethylcellulose (CMC) 100 % of control | dose: 200.0 mg/kg/injection, schedule: Q01DX001 (ip), vehicle: carboxymethylcellulose (CMC) 88 % of control

Source: PubChem BioAssay AID248 (DTP/NCI, 2004)
